Results taken from US4629723A, “Potent thymopentin analogs” (Ortho Pharmaceutical Corporation, priority 1984, dated 1986).
Non-standard residues stand in square brackets, D forms with d. Residues, ends and D or L forms follow the SMILES beside them. No end group written: not given here. Aib = CC(C)(N)C(=O)O

Experiments:
[1] = tested on: intact CEM cell; experiment: Cyclic-GMP assay; type: cell-based, human; settings: for Concentration of c-GMP Produced: CEM cells, 4-5 min, 37° C.; for Result on the cyclic-GMP assay in words: in comparison with thymopentin
Excerpt: This biological activity is evidenced by an assay measuring induction of cyclic-GMP production in a human T-cell line in comparison with thymopoietin. The induction of c-GMP production by a test peptide in this assay indicates the ability of the test peptide to bind to the thymopoietin receptor site on the cell and induce thymopoietin-like biological activity. […] Because of the expense of preparing peptides and the rapid degradation of peptides often observed in living systems, peptides such as those herein which have increased potency are greatly prized.
This assay measures the ability of the test peptide to bind to the cell membrane receptor of the intact CEM cell and selectively stimulate production of cyclic-GMP, as does thymopoietin itself.
The CEM cell line was obtained from the American Type Culture Collection and was cultured in RPMI-1640 medium supplemented with 10% heat-inactivated fetal bovine serum, 10% heat-inactivated horse serum, 2 mM L-glutamine, and 50 µg/ml gentamycin at 37° C. in a humid atmosphere containing 5 percent CO2, to a final density of 3-4×10^6 cells/ml. At this concentration, the cells were in the early stationary phase of the growth curve and were judged greater than 90% viable by trypan blue exclusion. The cells were grown for four days and harvested. After harvesting, the cells were washed three times in PBS and were resuspended in RPMI-1640 medium at a concentration of 3.12×10^7 cells/ml. After the cells had been allowed to equilibrate at 37° C. for 30 min, various concentrations of the test peptides were added in a volume of 25 μl of medium to 1 ml of cells, the initial concentration of test compound added being selected to yield the desired final concentration of test peptide in the medium. The test peptide was mixed instantly with the cell suspension. The incubation was allowed to proceed in a shaking water bath at 37° C. for 4-5 min and was then terminated by addition of ice-cold trichloroacetic acid (10%; 1 ml).
The cells in TCA were then homogenized and sonicated to release cyclic nucleotide. The resulting suspension was centrifuged at 3000 g for 20 min at 4° C. and the resulting precipitate was dissolved in 0.1N NaOH and sonicated for a further 30 minutes, after which the protein content was determined by the method of Cadman, et al., Anal. Biochem., 96, 21-23 (1979). The TCA was removed from the supernatant fraction by extracting four times with 5 ml of water-saturated diethyl ether. After the final extraction, the remaining traces of ether were removed from the supernatant fraction by heating it for 10 min in a 50° C. water bath. After lyophilization of the extracted supernatant fraction, it was reconstituted in 50 mM acetate buffer, ph 6.2, for radioimmunoassay of cyclic nucleotide using the assay kit NEX-133, New England Nuclear, Boston, MA 02113.
A conventional competition radioimmunoassay against radio labelled cyclic GMP was conducted to determine the amount of cyclic GMP induced by each concentration of test peptide. Results are shown in FIG. 1 and in the following table, in which representative subject peptides have been assayed in comparison with thymopentin (designated "TP-5") and a "nonsense" peptide H-ASP-ARG-TYR-LYS-VAL-OH.

[2] = tested on: isolated thymopoietin cell surface receptor protein from CEM cells; settings: for Displacement of 125I-TP relative to that caused by thymopoietin self-displacement: at equivalent concentrations, 2.3×10^-10 M 125I-TP, 4 μg receptor protein, with TP 37-45 nonapeptide, 12 h; for Displacement of 125I-TP, in words: comparison peptides, competition experiments
[3] = Concentration of Peptide 10^0 μg/ml
[4] = Concentration of Peptide 10^1 μg/ml
[5] = Concentration of Peptide 10^3 μg/ml
[6] = Concentration of Peptide 10^4 μg/ml

## CC(C)[C@H](NC(=O)[C@H](CC(=O)O)NC(=O)[C@@H]1CCCN1C(=O)[C@@H](N)CCCNC(=N)N)C(=O)N[C@@H](Cc1ccccc1)C(=O)O [H--ARG--PRO--ASP--VAL--PHE--OH, Arginyl-Prolyl-Aspartyl-Valyl-Phenylalanine] (H-RPDVF-OH)
[1]; [3]
  Concentration of c-GMP Produced: 0 picomoles/ml
[1]; [4]
  Concentration of c-GMP Produced: 12 picomoles/ml
[2]
  Displacement of 125I-TP relative to that caused by thymopoietin self-displacement: at least 50%

## CC(=O)N[C@@H](CCCNC(=N)N)C(=O)N1CCC[C@H]1C(=O)N[C@@H](CC(=O)O)C(=O)N[C@H](C(=O)N[C@@H](Cc1ccccc1)C(=O)O)C(C)C [N-α-acetyl-ARG-PRO-ASP-VAL-PHE-OH, N^α -Acetyl-Arginyl-Prolyl-Aspartyl-Valyl-Phenylaline] (Ac-RPDVF-OH)
[1]; [3]
  Concentration of c-GMP Produced: 7 picomoles/ml
[1]; [4]
  Concentration of c-GMP Produced: 15 picomoles/ml

## adrenocorticotropic hormone (SYSMEHFRWGKPVGKKRRPVKVYPNGAEDESAEAFPLEF; Corticotropin; UniProt P01189 138-176, looked up) [ACTH]
[2]
  Displacement of 125I-TP, in words: no detectable displacement

## CC(C)[C@H](NC(=O)[C@H](CC(=O)O)NC(=O)[C@H](CCCCN)NC(=O)[C@@H](N)CCCN=C(N)N)C(=O)N[C@@H](Cc1ccc(O)cc1)C(=O)O [TP-5, H--ARG--LYS--ASP--VAL--TYR--OH, reference compound] (H-RKDVY-OH)
[1]; [3]
  Concentration of c-GMP Produced: 0 picomoles/ml
[1]; [4]
  Concentration of c-GMP Produced: 4.5 picomoles/ml
[1]; Concentration of Peptide 10^2 μg/ml
  Concentration of c-GMP Produced: 9 picomoles/ml
[1]; [5]
  Concentration of c-GMP Produced: 12 picomoles/ml
[1]; [6]
  Concentration of c-GMP Produced: 14 picomoles/ml

## CC(=O)N[C@@H](CCCNC(=N)N)C(=O)NC(C)(C)C(=O)N[C@@H](CC(=O)O)C(=O)N[C@H](C(=O)N[C@@H](Cc1ccccc1)C(N)=O)C(C)C [N-α-acetyl-ARG-AIB-ASP-VAL-PHE-NH2, Acetyl-Arginyl-α-Aminoisobutyryl-Aspartyl-Valyl-Phenylalaminamide] (Ac-R[Aib]DVF-NH2)
[1]
  Result on the cyclic-GMP assay in words: superior results

## ubiquitin
[2]
  Displacement of 125I-TP, in words: no detectable displacement

## CC(C)[C@H](NC(=O)[C@H](CCCCN)NC(=O)[C@H](Cc1ccc(O)cc1)NC(=O)[C@H](CCCNC(=N)N)NC(=O)[C@@H](N)CC(=O)O)C(=O)O [H--ASP--ARG--TYR--LYS--VAL--OH, H-ASP-ARG-TYR-LYS-VAL-OH, reference compound] (H-DRYKV-OH)
[1]; [5]
  Concentration of c-GMP Produced: 0 picomoles/ml
[1]; [6]
  Concentration of c-GMP Produced: 0 picomoles/ml
[1]; Concentration of Peptide 10^5 μg/ml
  Concentration of c-GMP Produced: 0 picomoles/ml

## CC(C)[C@H](NC(=O)[C@H](CC(=O)O)NC(=O)[C@H](CCCCN)NC(=O)[C@@H](N)CCCNC(=N)N)C(=O)N[C@@H](Cc1c[nH]c2ccccc12)C(=O)O [H-ARG-LYS-ASP-VAL-TRP-OH, Arginyl-Lysyl-Aspartyl-Valyl-Tryptophan] (H-RKDVW-OH)
[1]
  Result on the cyclic-GMP assay in words: superior results
[2]
  Displacement of 125I-TP relative to that caused by thymopoietin self-displacement: at least 50%

## β-endorphin (YGGFMTSEKSQTPLVTLFKNAIIKNAYKKGE; Beta-endorphin; UniProt P01189 237-267, looked up)
[2]
  Displacement of 125I-TP, in words: no detectable displacement

## corticotropin-releasing factor (SEEPPISLDLTFHLLREVLEMARAEQLAQQAHSNRKLMEII; ends and bridges not checked; UniProt P06850 154-194, looked up) [CRF]
[2]
  Displacement of 125I-TP, in words: no detectable displacement

## C[C@H](N)C(=O)NCC(=O)N[C@H]1CSSC[C@@H](C(=O)O)NC(=O)[C@H](CO)NC(=O)[C@H]([C@@H](C)O)NC(=O)[C@H](Cc2ccccc2)NC(=O)[C@H]([C@@H](C)O)NC(=O)[C@H](CCCCN)NC(=O)[C@H](Cc2c[nH]c3ccccc23)NC(=O)[C@H](Cc2ccccc2)NC(=O)[C@H](Cc2ccccc2)NC(=O)[C@H](CC(N)=O)NC(=O)[C@H](CCCCN)NC1=O [somatostatin]
[2]
  Displacement of 125I-TP, in words: no detectable displacement

## CC(C)[C@H](NC(=O)[C@H](CC(=O)O)NC(=O)[C@H](CCCCN)NC(=O)[C@@H](N)CCCNC(=N)N)C(=O)N[C@@H](Cc1c[nH]cn1)C(=O)O [H-ARG-LYS-ASP-VAL-HIS-OH, Arginyl-Lysyl-Aspartyl-Valyl-Histidine] (H-RKDVH-OH)
[1]; [3]
  Concentration of c-GMP Produced: 0 picomoles/ml
[1]; [4]
  Concentration of c-GMP Produced: 9 picomoles/ml
[2]
  Displacement of 125I-TP relative to that caused by thymopoietin self-displacement: at least 50%

## growth hormone
[2]
  Displacement of 125I-TP, in words: no detectable displacement

## N^α -Acetyl-Arginyl-3,4-dehydro-Prolyl-Aspartyl-Valyl-Tyrosineamide
[1]
  Result on the cyclic-GMP assay in words: superior results

## CC(=O)N[C@@H](CCCNC(=N)N)C(=O)N1CCC[C@H]1C(=O)N[C@@H](CC(=O)O)C(=O)N[C@H](C(=O)N[C@@H](Cc1ccccc1)C(N)=O)C(C)C [N-α-acetyl-ARG-PRO-ASP-VAL-PHE-NH2, Acetyl-Arginyl-Prolyl-Aspartyl-Valyl-Phenylalanine-amide] (Ac-RPDVF-NH2)
[1]
  Result on the cyclic-GMP assay in words: superior results

## CC(C)[C@H](NC(=O)[C@H](CC(=O)O)NC(=O)[C@H](CCCCN)NC(=O)[C@@H](N)CCCNC(=N)N)C(=O)N[C@@H](Cc1ccccc1)C(=O)O [H-ARG-LYS-ASP-VAL-PHE-OH, Arginyl-Lysyl-Aspartyl-Valyl-Phenylalanine] (H-RKDVF-OH)
[1]; [3]
  Concentration of c-GMP Produced: 6 picomoles/ml
[1]; [4]
  Concentration of c-GMP Produced: 9 picomoles/ml
[2]
  Displacement of 125I-TP relative to that caused by thymopoietin self-displacement: at least 50%

## CC(C)[C@H](NC(=O)[C@H](CC(=O)O)NC(=O)[C@H](CCCCN)NC(=O)[C@@H](N)CCCNC(=N)N)C(=O)N[C@@H](Cc1c[nH]c2ccccc12)C(N)=O [H-ARG-LYS-ASP-VAL-TRP-NH2, Arginyl-Lysyl-Aspartyl-Valyl-Tryptophan amide] (H-RKDVW-NH2)
[1]
  Result on the cyclic-GMP assay in words: superior results
[2]
  Displacement of 125I-TP relative to that caused by thymopoietin self-displacement: at least 50%

## facteur thymique serique [FTS]
[2]
  Displacement of 125I-TP, in words: no detectable displacement
